In general, IC50 refers to the concentration needed to halve the response being measured.

From patent publication US20250115576A1, “THERAPEUTIC COMPOUNDS AND METHODS OF USE THEREOF” (Genentech, Inc., priority 2018, published 2025) come the findings set out here.

Counter-ions that a name gives are not always drawn.

Experiment [1] addresses T1, hNav1.7 (Homo sapiens (Human), UniProt Q15858). Kind of experiment: Patch voltage clamp electrophysiology (EP), Syncropatch 384PE, CHO cells stably expressing Nav1.7. The format is cell-based. As to conditions: holding potential −50 mV, 7.5 min compound incubation, read-out: EP_SP hNav1.7 EVO IC50. An excerpt: Example 64c. Electrophysiological Assay (EP) (In Vitro Assay)
Patch voltage clamp electrophysiology allows for the direct measurement and quantification of block of voltage-gated sodium channels (NaV's), and allows the determination of the time- and voltage-dependence of block which has been interpreted as differential binding to the resting, open, and inactivated states of the sodium channel (Hille, B., Journal of General Physiology (1977), 69: 497-515).
The following voltage clamp electrophysiology studies are performed on representative compounds using cells heterologously expressing Nav1.7 or Nav1.5 channels. cDNAs for Nav1.7 (NM_002977) and Nav1.5 (AC137587) are stably expressed in Chinese Hamstr Ovary (CHO) cells and CHL (Chinese Hamster Lung) cells respectively. Sodium currents are measured in the whole-cell configuration using Syncropatch 384PE (Nanlon Technologies, Germany). 1NPC®-384 chips with custom medium resistance and single hole mode are used. Internal solution consists of (in mM): […], 10 CsCl, 20 EGTA, and 10 Hepes (pH adjusted to 7.2); and external solution contains (in mM): 60 NMDG, 80 NaCl, 4 KCl, 1 MgCl2, 2 CaCl2, 2 D-Glucose monohydrate, 10 Hepes (pH adjusted to 7.4 with NaOH).
After system flushing, testing compounds are dissolved in external solution containing 0.1% Pluronic F-127. The chip is moved into the measuring head and the instrument primes the chip with external and internal solutions. 10 μl cells are added to the chip from a cell hotel, and a negative pressure of −50 mBar is applied to form a seal. Following treatment with seal enhancer solution and wash-off with external solution, negative pressure of −250 mbar is applied for 1 second to achieve the whole-cell configuration, followed by three washing steps in external solution. 20 μl of compounds is added to 40 μl in each well (1:3 dilution of compounds), and after mixing, 20 μl is removed so the volume is retained at 40 ul. After approximately 13 minutes recordings, 20 μl/well of 2 uM TTX, or 333 uM Tetracaine (for […]) is added to achieve full block.
For voltage protocol, an holding potential of −50 mV is applied during the whole experiment. A depolarizing step is applied to −10 mV for 10 ms, followed by a hyperpolarization step to −150 mV for 20 ms to allow channel recovery from inactivation. A second depolarizing step is applied from −150 mV to −10 mV for 10 ms, where currents are measured to derive blocking effects of compounds. Inhibition is determined based on 7.5 min of compound incubation.
Target sequence in this assay (Q15858 other isoform, or with tags, fused parts or gaps): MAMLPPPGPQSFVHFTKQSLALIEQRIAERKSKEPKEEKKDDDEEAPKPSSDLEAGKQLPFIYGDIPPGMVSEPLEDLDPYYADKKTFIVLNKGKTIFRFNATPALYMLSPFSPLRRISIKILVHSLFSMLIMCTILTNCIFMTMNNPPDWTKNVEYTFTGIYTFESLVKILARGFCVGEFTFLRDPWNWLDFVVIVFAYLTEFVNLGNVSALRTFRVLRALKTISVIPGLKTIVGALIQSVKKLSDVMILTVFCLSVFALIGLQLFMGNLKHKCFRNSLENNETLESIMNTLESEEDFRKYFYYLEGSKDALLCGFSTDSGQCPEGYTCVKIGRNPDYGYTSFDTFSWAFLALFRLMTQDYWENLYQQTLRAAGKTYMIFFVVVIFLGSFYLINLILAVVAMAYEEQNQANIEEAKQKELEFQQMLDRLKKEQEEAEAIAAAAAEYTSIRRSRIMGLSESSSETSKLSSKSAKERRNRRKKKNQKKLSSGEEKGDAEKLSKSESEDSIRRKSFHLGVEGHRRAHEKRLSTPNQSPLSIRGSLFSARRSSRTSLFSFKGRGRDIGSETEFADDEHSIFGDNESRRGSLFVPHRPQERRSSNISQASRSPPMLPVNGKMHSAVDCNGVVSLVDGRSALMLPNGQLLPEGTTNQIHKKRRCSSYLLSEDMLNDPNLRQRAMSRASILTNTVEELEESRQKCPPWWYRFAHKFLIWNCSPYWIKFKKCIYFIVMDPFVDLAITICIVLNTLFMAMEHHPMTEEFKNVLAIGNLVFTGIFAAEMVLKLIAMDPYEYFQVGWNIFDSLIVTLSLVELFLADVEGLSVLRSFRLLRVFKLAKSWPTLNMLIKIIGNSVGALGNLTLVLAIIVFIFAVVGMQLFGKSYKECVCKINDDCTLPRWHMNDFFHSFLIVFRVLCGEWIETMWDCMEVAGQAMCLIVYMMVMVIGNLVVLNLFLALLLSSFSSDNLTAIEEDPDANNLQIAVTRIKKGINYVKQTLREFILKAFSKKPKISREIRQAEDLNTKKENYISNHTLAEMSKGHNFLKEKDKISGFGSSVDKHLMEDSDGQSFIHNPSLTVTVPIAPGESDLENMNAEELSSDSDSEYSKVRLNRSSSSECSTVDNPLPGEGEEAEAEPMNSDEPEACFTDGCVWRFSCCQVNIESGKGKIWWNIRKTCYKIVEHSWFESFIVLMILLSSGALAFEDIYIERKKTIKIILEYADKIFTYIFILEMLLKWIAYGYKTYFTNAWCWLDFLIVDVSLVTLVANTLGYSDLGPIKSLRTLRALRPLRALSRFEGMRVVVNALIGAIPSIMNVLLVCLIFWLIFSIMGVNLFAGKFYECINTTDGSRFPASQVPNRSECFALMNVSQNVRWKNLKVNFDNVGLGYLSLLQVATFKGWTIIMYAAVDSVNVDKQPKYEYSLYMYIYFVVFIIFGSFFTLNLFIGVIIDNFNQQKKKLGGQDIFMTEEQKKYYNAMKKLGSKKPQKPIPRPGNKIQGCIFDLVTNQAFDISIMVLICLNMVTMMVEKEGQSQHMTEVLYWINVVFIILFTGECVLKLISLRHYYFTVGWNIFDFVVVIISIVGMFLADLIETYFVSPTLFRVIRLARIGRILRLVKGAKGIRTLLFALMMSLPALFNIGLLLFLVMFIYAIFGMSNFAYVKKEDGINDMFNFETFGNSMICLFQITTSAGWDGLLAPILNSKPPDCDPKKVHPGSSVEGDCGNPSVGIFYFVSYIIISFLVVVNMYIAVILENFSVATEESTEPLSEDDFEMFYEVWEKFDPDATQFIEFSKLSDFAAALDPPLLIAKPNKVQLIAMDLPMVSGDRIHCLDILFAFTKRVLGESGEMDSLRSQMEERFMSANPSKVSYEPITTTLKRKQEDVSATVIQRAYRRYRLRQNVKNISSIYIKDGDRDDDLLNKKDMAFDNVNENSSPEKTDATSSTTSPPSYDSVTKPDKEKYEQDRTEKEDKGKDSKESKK

Experiment [2] concerns the target T1, hNav1.7. Kind of experiment: Tritiated compound binding to membranes from cells expressing hNav1.7 and the β1 subunit (Nav1.7 LBA). As to conditions: competitive binding vs [3H]compound, membranes with hNav1.7 and β1 subunit; read-out: Nav1.7 LBA EVO IC50. The method, then:
Example 64a. Tritiated Compound Binding to Membranes Isolated from Cells that Heterologously Express hNav1.7 and the β 1 Subunit
Preparation of membranes containing recombinantly expressed sodium channels: Frozen recombinant cell pellets are thawed on ice and diluted to 4 times the cell pellet weight with ice cold 50 mM Tris HCl, pH 7.4 buffer. The cell suspensions are homogenized on ice using a motorized glass dounce homogeniser. Homogenates are further diluted 8.4 times with ice cold 50 mM Tris HCl, pH 7.4 buffer and then centrifuged at 200×g at 4° C. for 15 minutes. The supernatants are collected and centrifuged at 10000×g at 4° C. for 50 min. The pellets are then re-suspended in 100 mM NaCl, 20 mM Tris HCl, pH 7.4 buffer containing 1% v/v protease inhibitors (Calbiochem) and re-homogenized on ice. The homogenized membranes are then processed through a syringe equipped with a 26 gauge needle. Protein concentrations arer determined by Bradford Assay and the membranes are stored at −80° C.
Radioligand Binding Studies: Saturation experiments. A competitive NaV1.7 inhibitor having a methyl group is tritiated. Three tritiums are incorporated in place of methyl hydrogens to generate [^3H]compound. Binding of this radioligand is performed in 5 mL borosilicate glass test tubes at room temperature. Binding is initiated by adding membranes to increasing concentrations of [^3H]compound in 100 mM NaCl, 20 mM Tris HCl, pH 7.4 buffer containing 0.01% w/v bovine serum albumin (BSA) for 18 h. Non-specific binding is determined in the presence of 1 μM unlabeled compound. After 18 h, the reactants are filtered through GF/C glass fiber filters presoaked in 0.5% w/v polyethylene imine. […] [^3H]compound bound to filters is quantified by liquid scintillation counting.
Competitive binding experiments: Binding reactions are performed in 96-well polypropylene plates at room temperature for 18 h. […] Bound radioactivity is determined by liquid scintillation counting.
Data Analysis: For saturation experiments, non-specific binding is subtracted from total binding to provide specific binding and these values are recalculated in terms of pmol ligand bound per mg protein. Saturation curves are constructed and dissociation constants are calculated using the single site ligand binding model: Beq=(Bmax*X)/(X+Kd), where Beq is the amount of ligand bound at equilibrium, Bmax is the maximum receptor density, Kd is the dissociation constant for the ligand, and X is the free ligand concentration. For competition studies percent inhibition is determined and IC50 values are calculated using a 4 parameter logistic model (% inhibition=(A+((B−A)/(1+((x/C)^D)))) using XLfit, where A and B are the maximal and minimum inhibition respectively, C is the IC50 concentration and D is the (Hill) slope. […]
Target sequence in this assay (Q15858 whole entry, looked up): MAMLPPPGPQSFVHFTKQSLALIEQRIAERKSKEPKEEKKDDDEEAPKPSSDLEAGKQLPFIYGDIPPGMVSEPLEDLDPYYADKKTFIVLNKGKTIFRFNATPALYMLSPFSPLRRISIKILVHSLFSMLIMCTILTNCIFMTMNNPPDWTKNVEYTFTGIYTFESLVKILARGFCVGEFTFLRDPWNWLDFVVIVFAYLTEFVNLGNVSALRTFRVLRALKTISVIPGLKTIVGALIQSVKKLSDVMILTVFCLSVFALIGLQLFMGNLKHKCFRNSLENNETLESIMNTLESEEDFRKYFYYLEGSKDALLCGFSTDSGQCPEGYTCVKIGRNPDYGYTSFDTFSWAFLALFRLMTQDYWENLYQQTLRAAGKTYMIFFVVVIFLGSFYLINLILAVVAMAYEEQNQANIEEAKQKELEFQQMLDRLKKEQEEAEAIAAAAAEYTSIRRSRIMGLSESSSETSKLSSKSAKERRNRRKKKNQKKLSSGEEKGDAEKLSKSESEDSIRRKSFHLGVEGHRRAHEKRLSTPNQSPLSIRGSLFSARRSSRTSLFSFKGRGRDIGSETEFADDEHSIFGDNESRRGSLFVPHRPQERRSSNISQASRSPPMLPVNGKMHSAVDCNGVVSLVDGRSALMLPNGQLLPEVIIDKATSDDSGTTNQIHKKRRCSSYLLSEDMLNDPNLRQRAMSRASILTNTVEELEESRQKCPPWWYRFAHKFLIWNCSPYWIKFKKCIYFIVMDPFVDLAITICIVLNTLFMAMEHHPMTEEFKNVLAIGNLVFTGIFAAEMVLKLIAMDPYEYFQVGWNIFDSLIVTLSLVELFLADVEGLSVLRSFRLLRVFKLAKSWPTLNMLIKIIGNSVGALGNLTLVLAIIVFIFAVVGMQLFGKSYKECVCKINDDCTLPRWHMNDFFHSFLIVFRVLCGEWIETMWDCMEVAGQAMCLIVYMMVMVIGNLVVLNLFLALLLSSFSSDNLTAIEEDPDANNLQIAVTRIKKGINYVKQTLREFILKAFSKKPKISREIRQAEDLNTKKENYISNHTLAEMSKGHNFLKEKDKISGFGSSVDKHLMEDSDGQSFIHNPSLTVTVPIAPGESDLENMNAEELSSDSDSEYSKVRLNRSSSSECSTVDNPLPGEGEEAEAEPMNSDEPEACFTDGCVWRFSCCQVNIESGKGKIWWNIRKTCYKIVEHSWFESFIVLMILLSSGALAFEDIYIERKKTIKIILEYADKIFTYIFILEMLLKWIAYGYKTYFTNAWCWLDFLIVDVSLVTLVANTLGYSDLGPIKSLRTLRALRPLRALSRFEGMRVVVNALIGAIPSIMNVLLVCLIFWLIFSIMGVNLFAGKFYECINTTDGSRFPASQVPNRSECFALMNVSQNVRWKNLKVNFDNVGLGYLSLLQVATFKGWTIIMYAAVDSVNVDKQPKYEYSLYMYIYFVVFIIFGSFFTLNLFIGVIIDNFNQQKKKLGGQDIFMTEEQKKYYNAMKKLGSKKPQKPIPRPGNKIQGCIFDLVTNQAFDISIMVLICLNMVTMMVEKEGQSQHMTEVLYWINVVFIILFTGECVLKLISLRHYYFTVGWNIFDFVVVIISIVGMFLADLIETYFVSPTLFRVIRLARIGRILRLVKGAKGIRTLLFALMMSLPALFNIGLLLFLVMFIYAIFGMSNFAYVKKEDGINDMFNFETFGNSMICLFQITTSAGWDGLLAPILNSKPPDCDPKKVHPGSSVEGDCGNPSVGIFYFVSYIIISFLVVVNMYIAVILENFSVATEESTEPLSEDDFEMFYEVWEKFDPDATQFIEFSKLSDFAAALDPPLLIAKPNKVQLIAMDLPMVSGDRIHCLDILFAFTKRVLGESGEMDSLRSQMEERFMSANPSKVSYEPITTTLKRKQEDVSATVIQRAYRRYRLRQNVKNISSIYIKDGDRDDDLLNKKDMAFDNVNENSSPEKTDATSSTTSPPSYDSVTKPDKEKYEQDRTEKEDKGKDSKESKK
Target sequence in this assay (Q07699 whole entry partner, looked up): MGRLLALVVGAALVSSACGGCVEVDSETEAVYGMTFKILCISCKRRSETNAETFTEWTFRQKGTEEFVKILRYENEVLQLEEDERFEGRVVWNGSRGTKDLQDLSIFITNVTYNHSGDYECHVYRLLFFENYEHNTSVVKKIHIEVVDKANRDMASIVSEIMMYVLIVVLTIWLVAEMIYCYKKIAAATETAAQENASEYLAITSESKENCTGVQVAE

Consider `CN(C)[C@H]1C[C@@H](c2cccc(C(F)(F)F)c2)CC[C@@H]1Nc1ccc(S(=O)(=O)Nc2ccncn2)cn1` (racemic) [Example 2, 6-(((1S,2S,4S)-2-(Dimethylamino)-4-(3-(trifluoromethyl)phenyl)cyclohexyl)amino)-N-(pyrimidin-4-yl)pyridine-3-sulfonamide], for which the concentration for half-maximal inhibition (IC50) in experiment [1] came out at 0.427 nM; in experiment [2], 9.17 nM. For `Cc1nc(O[C@H]2CC[C@H](c3cccc(C(F)(F)F)n3)C[C@@H]2N(C)C)ccc1S(=O)(=O)Nc1ccncn1` [Example 51, 6-(((1S,2S,4S)-2-(dimethylamino)-4-(6-(trifluoromethyl)pyridin-2-yl)cyclohexyl)oxy)-2-methyl-N-(pyrimidin-4-yl)pyridine-3-sulfonamide], in that order: 4.59 nM and 0.985 nM. The like results for “6-(((1S,2S,4S)-4-(3-(1,1-difluoroethyl)phenyl)-2-(dimethylamino)cyclohexyl)oxy)-2-methyl-N-(pyrimidin-4-yl)pyridine-3-sulfonamide [Example 41]” were, in that order, 1.95 nM and 1.9 nM. For “5-Chloro-6-(((1S,2S,4S)-4-(3-chlorophenyl)-2-(dimethylamino)cyclohexyl)oxy)-N-(pyrimidin-4-yl)pyridine-3-sulfonamide [Example 27]”, in that order: 0.574 nM and 7.12 nM. Regarding `Cc1nc(O[C@H]2CC[C@H](c3cccc(OC(F)(F)F)c3)C[C@@H]2N(C)C)ccc1S(=O)(=O)Nc1ccncn1` [Example 28, 6-(((1S,2S,4S)-2-(Dimethylamino)-4-(3-(trifluoromethoxy)phenyl)cyclohexyl)oxy)-2-methyl-N-(pyrimidin-4-yl)pyridine-3-sulfonamide], in experiment [1], the IC50 was 0.664 nM. Same read-out and setting: as for `CN(C)[C@H]1C[C@@H](c2cccc(C(F)(F)F)c2)CC[C@@H]1Oc1ncc(S(=O)(=O)Nc2ccncn2)cc1C#N` [Example 6, 5-Cyano-6-(((1S,2S,4S)-2-(dimethylamino)-4-(3-(trifluoromethyl)phenyl)cyclohexyl)oxy)-N-(pyrimidin-4-yl)pyridine-3-sulfonamide formate], the figure is 3.51 nM. In the case of `CN(C)[C@H]1C[C@@H](c2cc(C(F)(F)F)ccc2F)CC[C@@H]1Oc1ccc(S(=O)(=O)Nc2ccncn2)c(Cl)n1` [Example 44, 2-Chloro-6-(((1S,2S,4S)-2-(dimethylamino)-4-(2-fluoro-5-(trifluoromethyl)phenyl)-cyclohexyl)oxy)-N-(pyrimidin-4-yl)pyridine-3-sulfonamide formate], the IC50 in experiment [1] was determined as 1.81 nM. Still for that read-out and setting: then `CN(C)[C@H]1C[C@@H](c2cccc(C(F)(F)F)c2)CC[C@@H]1Nc1ncc(S(=O)(=O)Nc2ccncn2)cc1Cl` [Example 4, 5-Chloro-6-(((1S,2S,4S)-2-(dimethylamino)-4-(3-(trifluoromethyl)phenyl)cyclohexyl)amino)-N-(pyrimidin-4-yl)pyridine-3-sulfonamide], with 0.765 nM; and `CN(C)[C@H]1C[C@@H](c2cccc(OC(F)(F)F)c2)CC[C@@H]1Oc1ncc(S(=O)(=O)Nc2ccncn2)cc1Cl` [Example 13, 5-chloro-6-(((1S,2S,4S)-2-(dimethylamino)-4-(3-(trifluoromethoxy)phenyl)cyclohexyl)oxy)-N-(pyrimidin-4-yl)pyridine-3-sulfonamide], with 1.55 nM; and `Cc1nc(O[C@H]2CC[C@H](c3cccc(OC(F)F)c3)C[C@@H]2N(C)C)ccc1S(=O)(=O)Nc1ccncn1` [Example 52, 6-(((1S,2S,4S)-4-(3-(difluoromethoxy)phenyl)-2-(dimethylamino)cyclohexyl)oxy)-2-methyl-N-(pyrimidin-4-yl)pyridine-3-sulfonamide], with 1.82 nM. Still for that read-out and setting: as for `Cc1nc(O[C@H]2CC[C@H](c3cccc(C(F)(F)F)c3C)C[C@@H]2N(C)C)ccc1S(=O)(=O)Nc1ccncn1` [Example 60, 6-(((1S,2S,4S)-2-(dimethyl-amino)-4-(2-methyl-3-(trifluoromethyl)phenyl)-cyclohexyl)oxy)-2-methyl-N-(pyrimidin-4-yl)pyridine-3-sulfonamide], the figure is 0.909 nM; as for `Cc1nc(O[C@H]2CC[C@H](c3cccc(C(F)(F)F)c3)C[C@@H]2N(C)C)ccc1S(=O)(=O)Nc1ccncn1` [Example 23, 6-(((1S,2S,4S)-2-(Dimethylamino)-4-(3-(trifluoromethyl)phenyl)cyclohexyl)oxy)-2-methyl-N-(pyrimidin-4-yl)pyridine-3-sulfonamide formate], 0.765 nM; as for `O=S(=O)(Nc1ccncn1)c1ccc(O[C@H]2CC[C@H](c3cccc(C(F)(F)F)c3)C[C@@H]2N2CCCC2)nc1` [Example 17, N-(pyrimidin-4-yl)-6-(((1S,2S,4S)-2-(pyrrolidin-1-yl)-4-(3-(trifluoromethyl)phenyl)cyclohexyl)oxy)-pyridine-3-sulfonamide formate], 0.602 nM. On the same count and under the same terms, as for `CN(C)[C@H]1C[C@@H](c2cccc(C(F)(F)F)c2)CC[C@@H]1Oc1ncc(S(=O)(=O)Nc2ccncn2)cc1Br` [Example 20, 5-bromo-6-(((1S,2S,4S)-2-(dimethylamino)-4-(3-(trifluoromethyl)phenyl)cyclohexyl)oxy)-N-(pyrimidin-4-yl)pyridine-3-sulfonamide formate], the figure is 0.9 nM; as for `O=S(=O)(Nc1ccncn1)c1ccc(O[C@H]2CC[C@H](c3cccc(C(F)(F)F)c3)C[C@@H]2N2CCCCC2)nc1` [Example 26, 6-(((1S,2S,4S)-2-(piperidin-1-yl)-4-(3-(trifluoromethyl)phenyl)cyclohexyl)oxy)-N-(pyrimidin-4-yl)pyridine-3-sulfonamide], 1.16 nM.
